These are literature values, as cited in US20230398240A1, “THERAPEUTIC RADIOLABELLED CONJUGATES AND THEIR USE IN THERAPY” (priority 2020, published 2023).

Data set [1] has as its system quiescent endothelial cells. Particulars: in vitro.

On to `N[C@@H](CCC(=O)N[C@@H](CSCC(=O)Nc1ccc([As](O)O)cc1)C(=O)NCC(=O)O)C(=O)O` [GSAO, 4-(N—(S-glutathionylacetyl)amino)phenylarsenous acid], for which the “toxicity to proliferating cells” value in the data set with proliferating cells is “toxic to proliferating cells”. Further, the “effect on angiogenesis in vivo” value in the data set with angiogenesis is “inhibits angiogenesis in vivo”. The “toxicity to quiescent endothelial cells” value in data set [1] was “nontoxic to quiescent endothelial cells”.
